The term vapor or sublimation pressure denotes the equilibrium pressure above the liquid or solid.

We go through six compounds from the NIST ThermoML archive (doi:10.1016/j.fluid.2011.10.009).

The conditions of this series: Liquid.

± gives the expanded uncertainty stated by the source.

For `c1ccccc1` [benzene], the “vapor or sublimation pressure” value (353.3 K, Closed cell (Static) method) was found to be 101.3 ± 1 kPa.

On to `Cc1cccc(C)c1` [1,3-dimethylbenzene], for which the “vapor or sublimation pressure” value (412 K, Ebulliometric method (Recirculating still)) worked out at 101.3 ± 1 kPa.

Consider `Cc1ccccc1` [toluene], for which the “vapor or sublimation pressure” value (383.4 K, Closed cell (Static) method) came out at 101.3 ± 1 kPa and the “vapor or sublimation pressure” value (383.8 K, Closed cell (Static) method) was determined as 101.3 ± 1 kPa.

For `Cc1ccc(C)cc1` [1,4-dimethylbenzene], the “vapor or sublimation pressure” value (411.4 K, Ebulliometric method (Recirculating still)) is 101.3 ± 1 kPa.

On to `C1CCCCC1` [cyclohexane], for which the “vapor or sublimation pressure” value (353.7 K, Ebulliometric method (Recirculating still)) turned out to be 101.3 ± 1 kPa.

On to `CCCCCCCCC` [nonane], for which the “vapor or sublimation pressure” value (423.8 K, Ebulliometric method (Recirculating still)) came to 101.3 ± 1 kPa.
